Data reported in PubChem BioAssay (NCI).
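Test compounds were applied to cells in 96-well plates for 48 hours at 5 doses. At the TGI there is no net growth.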

Tests used:
Assay in all cases: NCI anticancer screen, dose series, 48 h
786-0 renal = test system: 786-0 renal
A498 renal = test system: A498 renal
A549 NSCLC = test system: A549 NSCLC
ACHN renal = test system: ACHN renal
CCRF-CEM leukemia = test system: CCRF-CEM leukemia
COLO 205 colon = test system: COLO 205 colon
DLD-1 colon = test system: DLD-1 colon
DMS 114 small cell lung = test system: DMS 114 small cell lung
DMS 273 small cell lung = test system: DMS 273 small cell lung
EKVX NSCLC = test system: EKVX NSCLC
HCC-2998 colon = test system: HCC-2998 colon
HCT-116 colon = test system: HCT-116 colon
HCT-15 colon = test system: HCT-15 colon
HL-60(TB) leukemia = test system: HL-60(TB) leukemia
HOP-18 NSCLC = test system: HOP-18 NSCLC
HOP-62 NSCLC = test system: HOP-62 NSCLC
HOP-92 NSCLC = test system: HOP-92 NSCLC
HT29 colon = test system: HT29 colon
IGROV1 ovarian = test system: IGROV1 ovarian
K-562 leukemia = test system: K-562 leukemia
KM12 colon = test system: KM12 colon
LOX IMVI melanoma = test system: LOX IMVI melanoma
LXFL 529 NSCLC = test system: LXFL 529 NSCLC
M14 melanoma = test system: M14 melanoma
M19-MEL melanoma = test system: M19-MEL melanoma
MALME-3M melanoma = test system: MALME-3M melanoma
MOLT-4 leukemia = test system: MOLT-4 leukemia
NCI-H226 lung = test system: NCI-H226 lung
NCI-H23 lung = test system: NCI-H23 lung
NCI-H460 lung = test system: NCI-H460 lung
NCI-H522 lung = test system: NCI-H522 lung
OVCAR-3 ovarian = test system: OVCAR-3 ovarian
OVCAR-4 ovarian = test system: OVCAR-4 ovarian
OVCAR-5 ovarian = test system: OVCAR-5 ovarian
OVCAR-8 ovarian = test system: OVCAR-8 ovarian
RPMI-8226 leukemia = test system: RPMI-8226 leukemia
RXF 393 renal = test system: RXF 393 renal
RXF-631 renal = test system: RXF-631 renal
SF-268 CNS = test system: SF-268 CNS
SF-295 CNS = test system: SF-295 CNS
SF-539 CNS = test system: SF-539 CNS
SK-MEL-2 melanoma = test system: SK-MEL-2 melanoma
SK-MEL-28 melanoma = test system: SK-MEL-28 melanoma
SK-MEL-5 melanoma = test system: SK-MEL-5 melanoma
SK-OV-3 ovarian = test system: SK-OV-3 ovarian
SN12C renal = test system: SN12C renal
SNB-19 CNS = test system: SNB-19 CNS
SNB-75 CNS = test system: SNB-75 CNS
SNB-78 CNS = test system: SNB-78 CNS
SR leukemia = test system: SR leukemia
SW-620 colon = test system: SW-620 colon
TK-10 renal = test system: TK-10 renal
U251 CNS = test system: U251 CNS
UACC-257 melanoma = test system: UACC-257 melanoma
UACC-62 melanoma = test system: UACC-62 melanoma
UO-31 renal = test system: UO-31 renal
CAKI-1 renal = test system: CAKI-1 renal
KM20L2 colon = test system: KM20L2 colon
XF 498 CNS = test system: XF 498 CNS

## O=C1CC(C2(O)C(=O)Nc3ccc([N+](=O)[O-])cc32)c2ccccc21 (configuration not stated)
786-0 renal
  TGI: 36.6 µM
A498 renal
  TGI: > 100 µM
A549 NSCLC
  TGI: > 100 µM
ACHN renal
  TGI: > 100 µM
CCRF-CEM leukemia
  TGI: 61.1 µM
COLO 205 colon
  TGI: 71.6 µM
DLD-1 colon
  TGI: > 100 µM
DMS 114 small cell lung
  TGI: 23.9 µM
DMS 273 small cell lung
  TGI: 41.4 µM
EKVX NSCLC
  TGI: > 100 µM
HCC-2998 colon
  TGI: 44.9 µM
HCT-116 colon
  TGI: > 100 µM
HCT-15 colon
  TGI: 37.8 µM
HL-60(TB) leukemia
  TGI: 45.3 µM
HOP-18 NSCLC
  TGI: > 100 µM
HOP-62 NSCLC
  TGI: > 100 µM
HOP-92 NSCLC
  TGI: 85.4 µM
HT29 colon
  TGI: 62.7 µM
IGROV1 ovarian
  TGI: 45.1 µM
K-562 leukemia
  TGI: 60.6 µM
KM12 colon
  TGI: 98.6 µM
LOX IMVI melanoma
  TGI: 33 µM
LXFL 529 NSCLC
  TGI: 76.2 µM
M14 melanoma
  TGI: 52.2 µM
M19-MEL melanoma
  TGI: 78.7 µM
MALME-3M melanoma
  TGI: > 100 µM
MOLT-4 leukemia
  TGI: 57.7 µM
NCI-H226 lung
  TGI: 92.7 µM
NCI-H23 lung
  TGI: 71 µM
NCI-H460 lung
  TGI: 29.9 µM
NCI-H522 lung
  TGI: 26.3 µM
OVCAR-3 ovarian
  TGI: 67.7 µM
OVCAR-4 ovarian
  TGI: 88.1 µM
OVCAR-5 ovarian
  TGI: > 100 µM
OVCAR-8 ovarian
  TGI: > 100 µM
RPMI-8226 leukemia
  TGI: 57.5 µM
RXF 393 renal
  TGI: 45.5 µM
RXF-631 renal
  TGI: 31.8 µM
SF-268 CNS
  TGI: 54.7 µM
SF-295 CNS
  TGI: > 100 µM
SF-539 CNS
  TGI: 64.1 µM
SK-MEL-2 melanoma
  TGI: 36.5 µM
SK-MEL-28 melanoma
  TGI: 62 µM
SK-MEL-5 melanoma
  TGI: 75.6 µM
SK-OV-3 ovarian
  TGI: > 100 µM
SN12C renal
  TGI: 80.5 µM
SNB-19 CNS
  TGI: > 100 µM
SNB-75 CNS
  TGI: > 100 µM
SNB-78 CNS
  TGI: > 100 µM
SR leukemia
  TGI: 46.6 µM
SW-620 colon
  TGI: 81.6 µM
TK-10 renal
  TGI: > 100 µM
U251 CNS
  TGI: 37.8 µM
UACC-257 melanoma
  TGI: > 100 µM
UACC-62 melanoma
  TGI: 40.2 µM
UO-31 renal
  TGI: > 100 µM

## Cc1cc(Cl)cc2c1NC(=O)C2(O)CC(=O)c1ccc(Br)cc1 (configuration not stated)
786-0 renal
  TGI: > 100 µM
A498 renal
  TGI: > 70.8 µM
A549 NSCLC
  TGI: > 100 µM
ACHN renal
  TGI: > 100 µM
CAKI-1 renal
  TGI: > 100 µM
CCRF-CEM leukemia
  TGI: 42.7 µM
COLO 205 colon
  TGI: > 100 µM
DLD-1 colon
  TGI: > 100 µM
DMS 114 small cell lung
  TGI: > 100 µM
DMS 273 small cell lung
  TGI: > 100 µM
EKVX NSCLC
  TGI: > 100 µM
HCC-2998 colon
  TGI: > 100 µM
HCT-116 colon
  TGI: > 100 µM
HCT-15 colon
  TGI: > 100 µM
HL-60(TB) leukemia
  TGI: 48.2 µM
HOP-62 NSCLC
  TGI: > 100 µM
HOP-92 NSCLC
  TGI: > 100 µM
HT29 colon
  TGI: > 100 µM
IGROV1 ovarian
  TGI: > 100 µM
K-562 leukemia
  TGI: > 100 µM
KM12 colon
  TGI: > 100 µM
KM20L2 colon
  TGI: > 100 µM
LOX IMVI melanoma
  TGI: > 100 µM
LXFL 529 NSCLC
  TGI: > 100 µM
M14 melanoma
  TGI: > 100 µM
M19-MEL melanoma
  TGI: > 55 µM
MALME-3M melanoma
  TGI: > 100 µM
MOLT-4 leukemia
  TGI: 46.5 µM
NCI-H226 lung
  TGI: > 100 µM
NCI-H23 lung
  TGI: 99.4 µM
NCI-H460 lung
  TGI: > 100 µM
NCI-H522 lung
  TGI: > 100 µM
OVCAR-3 ovarian
  TGI: > 100 µM
OVCAR-4 ovarian
  TGI: > 54.6 µM
OVCAR-5 ovarian
  TGI: > 100 µM
OVCAR-8 ovarian
  TGI: > 100 µM
RPMI-8226 leukemia
  TGI: > 100 µM
RXF 393 renal
  TGI: 56.9 µM
RXF-631 renal
  TGI: > 100 µM
SF-268 CNS
  TGI: > 100 µM
SF-295 CNS
  TGI: > 100 µM
SF-539 CNS
  TGI: > 100 µM
SK-MEL-2 melanoma
  TGI: > 100 µM
SK-MEL-28 melanoma
  TGI: 97.9 µM
SK-MEL-5 melanoma
  TGI: 57.8 µM
SK-OV-3 ovarian
  TGI: > 100 µM
SN12C renal
  TGI: > 100 µM
SNB-19 CNS
  TGI: > 100 µM
SNB-75 CNS
  TGI: > 100 µM
SW-620 colon
  TGI: > 100 µM
TK-10 renal
  TGI: > 100 µM
U251 CNS
  TGI: > 100 µM
UACC-257 melanoma
  TGI: > 100 µM
UACC-62 melanoma
  TGI: 56.2 µM
UO-31 renal
  TGI: > 100 µM
XF 498 CNS
  TGI: 76.2 µM
